The values that follow come from patent publication US10906890B2, “Triazole phenyl compounds as agonists of the APJ receptor” (AMGEN INC., priority 2016, dated 2021).

pEC50: −log10 of the molar value.

The assay addresses human APJ receptor (Homo sapiens (Human), UniProt P35414). Put plainly: [35S]GTPγS binding assay on membranes from CHO cells stably expressing human APJ receptor. Type of assay: biochemical. Particulars: means of several independent experiments, read-out: Activity hAPJ SPA EC50 IP. The essentials: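 Membranes from CHO cells stably expressing FLAG-tagged human APJ incubated with [35S]GTPγS in buffer with optimized GDP, MgCl2 and NaCl levels, 90 min at RT. Signal read by imaging; EC50 by non-linear regression from means of several independent experiments.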

Chain of human APJ receptor (P35414 whole entry): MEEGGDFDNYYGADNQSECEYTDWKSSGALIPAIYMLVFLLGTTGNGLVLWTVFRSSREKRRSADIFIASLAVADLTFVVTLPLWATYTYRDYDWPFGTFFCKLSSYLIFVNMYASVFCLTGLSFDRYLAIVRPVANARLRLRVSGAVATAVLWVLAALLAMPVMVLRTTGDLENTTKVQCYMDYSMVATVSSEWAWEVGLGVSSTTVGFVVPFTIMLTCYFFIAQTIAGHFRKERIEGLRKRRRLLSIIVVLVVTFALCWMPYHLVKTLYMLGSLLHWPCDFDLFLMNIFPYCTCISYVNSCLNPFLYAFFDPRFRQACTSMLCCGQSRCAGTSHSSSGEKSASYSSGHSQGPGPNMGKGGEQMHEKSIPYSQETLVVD

Take `COc1ccc(-c2nnc(NS(=O)(=O)[C@@H](C)[C@H](OC)c3ncc(C)cn3)n2-c2c(OC)cccc2OC)cc1C#N` [Example 75.0, (1R,2S)-N-(5-(3-cyano-4-methoxyphenyl)-4-(2,6-dimethoxyphenyl)-4H-1,2,4-triazol-3-yl)-1-methoxy-1-(5-methyl-2-pyrimidinyl)-2-propanesulfonamide]: the pEC50 is 7.89.

On to `COc1cccc(OC)c1-n1c(NS(=O)(=O)[C@H]2C[C@@H](O)CN(c3ncc(F)cn3)C2)nnc1-c1ccccc1` (single isomer, unassigned) [Example 56.0, (3R,5S)-N-(4-(2,6-dimethoxyphenyl)-5-phenyl-4H-1,2,4-triazol-3-yl)-1-(5-fluoro-2-pyrimidinyl)-5-hydroxy-3-piperidinesulfonamide or (3S,5R)-N-(4-(2,6-dimethoxyphenyl)-5-phenyl-4H-1,2,4-triazol-3-yl)-1-(5-fluoro-2-pyrimidinyl)-5-hydroxy-3-piperidinesulfonamide], for which the pEC50 is 7.52.

As for `COc1cccc(OC)c1-n1c(NS(=O)(=O)[C@@H](C)[C@H](C)c2ncc(Cl)cn2)nnc1-c1ccccc1` [Example 16.0, (2S,3R)-3-(5-chloro-2-pyrimidinyl)-N-(4-(2,6-dimethoxyphenyl)-5-phenyl-4H-1,2,4-triazol-3-yl)-2-butanesulfonamide], the pEC50 was 9.70.

`COC[C@H](C)n1c(NS(=O)(=O)[C@@H](C)[C@H](C)c2ncc(Cl)cn2)nnc1-c1ccccc1` [Example 126.0]: the pEC50 is 7.77.

Regarding `COc1cccc(OC)c1-n1c(NS(=O)(=O)[C@@H](C)[C@@H](OC(C)C)c2ncc(C)cn2)nnc1-c1ccccc1` [Example 13.0, (1S,2S)-N-(4-(2,6-dimethoxyphenyl)-5-phenyl-4H-1,2,4-triazol-3-yl)-1-(1-methylethoxy)-1-(5-methyl-2-pyrimidinyl)-2-propanesulfonamide], the pEC50 was 9.66.

On to `COc1ncnc(OC)c1-n1c(NS(=O)(=O)[C@@H](C)[C@H](C)c2ccc(Cl)cn2)nnc1-c1ccccc1` [Example 127.0], for which the pEC50 is 9.02.

Turning to `COc1ncnc(OC)c1-n1c(NS(=O)(=O)[C@H]2CCCN(c3ncc(F)cn3)C2)nnc1-c1ccccc1` (single isomer, unassigned) [Example 27.0, (3S)-N-(4-(4,6-dimethoxy-5-pyrimidinyl)-5-phenyl-4H-1,2,4-triazol-3-yl)-1-(5-fluoro-2-pyrimidinyl)-3-piperidinesulfonamide or (3R)-N-(4-(4,6-dimethoxy-5-pyrimidinyl)-5-phenyl-4H-1,2,4-triazol-3-yl)-1-(5-fluoro-2-pyrimidinyl)-3-piperidinesulfonamide], the pEC50 is 7.49.

On to `COc1ncnc(OC)c1-n1c(NS(=O)(=O)[C@@H](C)[C@H](OC)c2ncc(C)cn2)nnc1-c1cccc(C#N)c1` [Example 2.0, (1R,2S)-N-(5-(3-cyanophenyl)-4-(4,6-dimethoxypyrimidin-5-yl)-4H-1,2,4-triazol-3-yl)-1-methoxy-1-(5-methylpyrimidin-2-yl)propane-2-sulfonamide], for which the pEC50 was 6.96.

For `COc1cccc(OC)c1-n1c(NS(=O)(=O)[C@@H](C)[C@H](OC)c2ncc(C)cn2)nnc1-c1cccc2cn(C)nc12` [Example 92.0], the pEC50 was 7.22.

For `COc1ncnc(OC)c1-n1c(NS(=O)(=O)[C@@H](C)[C@H](OC)c2ncc(C)cn2)nnc1-c1ccccc1` [Example 4.0, (1R,2S)-N-(4-(4,6-dimethoxypyrimidin-5-yl)-5-phenyl-4H-1,2,4-triazol-3-yl)-1-methoxy-1-(5-methylpyrimidin-2-yl)propane-2-sulfonamide], the pEC50 is 8.54.

On to `COc1cccc(OC)c1-n1c(NS(=O)(=O)[C@@H](C)[C@H](OC)c2ncc(C)cn2)nnc1-c1cccc(F)c1` [Example 85.0, (1R,2S)—N-(4-(2,6-Dimethoxyphenyl)-5-(3-fluorophenyl)-4H-1,2,4-triazol-3-yl)-1-methoxy-1-(5-methyl-2-pyrimidinyl)-2-propanesulfonamide], for which the pEC50 was 9.04.

On to `COc1cccc(OC)c1-n1c(NS(=O)(=O)[C@H]2CCCN(c3ncc(Cl)cn3)C2)nnc1-c1ccccc1` (single isomer, unassigned) [Example 35.0, (S)-1-(5-Chloropyrimidin-2-yl)-N-(4-(2,6-dimethoxyphenyl)-5-phenyl-4H-1,2,4-triazol-3-yl)piperidine-3-sulfonamide or (R)-1-(5-chloropyrimidin-2-yl)-N-(4-(2,6-dimethoxyphenyl)-5-phenyl-4H-1,2,4-triazol-3-yl)piperidine-3-sulfonamide], for which the pEC50 was 6.55.

On to `COc1cnc([C@@H](C)[C@H](C)S(=O)(=O)Nc2nnc(-c3ccccc3Br)n2C2COC(C)(C)OC2)nc1` [Example 128.0], for which the pEC50 was 6.04.

As for `CO[C@H](c1ncc(Cl)cn1)[C@H](C)S(=O)(=O)Nc1nnc(-c2ccccc2)n1C1(C)CC1` [Example 98.0], the pEC50 is 8.48.

Take `COCC(COC)n1c(NS(=O)(=O)[C@@H](C)[C@@H](OC(C)C)c2ncc(Cl)cn2)nnc1-c1ccccc1` [Example 123.0]: the pEC50 is 8.14.

Consider `COc1ncnc(OC)c1-n1c(NS(=O)(=O)[C@H]2CCCN(c3ncc(Cl)cn3)C2)nnc1-c1ccccc1` (single isomer, unassigned) [Example 31.0, (3S)-1-(5-chloro-2-pyrimidinyl)-N-(4-(4,6-dimethoxy-5-pyrimidinyl)-5-phenyl-4H-1,2,4-triazol-3-yl)-3-piperidinesulfonamide or (3R)-1-(5-chloro-2-pyrimidinyl)-N-(4-(4,6-dimethoxy-5-pyrimidinyl)-5-phenyl-4H-1,2,4-triazol-3-yl)-3-piperidinesulfonamide], for which the pEC50 was 6.47.

Consider `COc1cccc(OC)c1-n1c(NS(=O)(=O)[C@H]2C[C@@H](O)CN(c3ncc(F)cn3)C2)nnc1-c1ccccc1` (mixture of isomers) [Example 53.0, (3R,5S)-N-(4-(2,6-dimethoxyphenyl)-5-phenyl-4H-1,2,4-triazol-3-yl)-1-(5-fluoro-2-pyrimidinyl)-5-hydroxy-3-piperidinesulfonamide and (3S,5R)-N-(4-(2,6-dimethoxyphenyl)-5-phenyl-4H-1,2,4-triazol-3-yl)-1-(5-fluoro-2-pyrimidinyl)-5-hydroxy-3-piperidinesulfonamide], for which the pEC50 is 8.31.

Turning to `Cc1cnc([C@@H](O)[C@H](C)S(=O)(=O)Nc2nnc(-c3ccccc3)n2-c2c(F)cccc2F)nc1` [Example 45.0], the pEC50 was 7.47.

`COc1cccc(OC)c1-n1c(NS(=O)(=O)[C@@H](C)[C@H](OC)c2ncc(C)cn2)nnc1-c1ccc(Cl)c(Cl)c1` [Example 70.0, (1R,2S)-N-(5-(3,4-dichlorophenyl)-4-(2,6-dimethoxyphenyl)-4H-1,2,4-triazol-3-yl)-1-methoxy-1-(5-methyl-2-pyrimidinyl)-2-propanesulfonamide]: the negative logarithm of the EC50 (pEC50) is 8.42.

For the compound `COc1cccc(OC)c1-n1c(NS(=O)(=O)[C@@H](C)[C@H](OC)c2ncc(C)cn2)nnc1-c1ccc(C(C)(C)C)cc1` [Example 65.0, (1R,2S)—N-(5-(4-tert-Butylphenyl)-4-(2,6-dimethoxyphenyl)-4H-1,2,4-triazol-3-yl)-1-methoxy-1-(5-methyl-2-pyrimidinyl)-2-propanesulfonamide], the pEC50 is 6.64.

With `COc1ncnc(OC)c1-n1c(NS(=O)(=O)[C@H]2CCCN(c3ncc(Cl)cn3)C2)nnc1-c1ccccc1` (single isomer, unassigned) [Example 32.0, (3S)-1-(5-chloro-2-pyrimidinyl)-N-(4-(4,6-dimethoxy-5-pyrimidinyl)-5-phenyl-4H-1,2,4-triazol-3-yl)-3-piperidinesulfonamide or (3R)-1-(5-chloro-2-pyrimidinyl)-N-(4-(4,6-dimethoxy-5-pyrimidinyl)-5-phenyl-4H-1,2,4-triazol-3-yl)-3-piperidinesulfonamide], the pEC50 is 7.77.

Consider `COc1cccc(OC)c1-n1c(NS(=O)(=O)[C@@H](C)[C@H](C)c2ncc(C)cn2)nnc1-c1ccccc1` [Example 15.0, (2S,3R)-N-(4-(2,6-dimethoxyphenyl)-5-phenyl-4H-1,2,4-triazol-3-yl)-3-(5-methyl-2-pyrimidinyl)-2-butanesulfonamide], for which the pEC50 is 9.05.

`COc1ncnc(OC)c1-n1c(NS(=O)(=O)[C@@H](C)[C@H](C)c2ncc(C)cn2)nnc1-c1ccccc1` [Example 5.0, (2S,3R)-N-(4-(4,6-dimethoxy-5-pyrimidinyl)-5-phenyl-4H-1,2,4-triazol-3-yl)-3-(5-methyl-2-pyrimidinyl)-2-butanesulfonamide]: the pEC50 is 8.64.

In the case of `COc1cccc(OC)c1-n1c(NS(=O)(=O)[C@@H](C)[C@H](OC)c2ncc(C)cn2)nnc1-c1ccc2c(c1)OCO2` [Example 66.0, (1R,2S)-N-(5-(1,3-benzodioxol-5-yl)-4-(2,6-dimethoxyphenyl)-4H-1,2,4-triazol-3-yl)-1-methoxy-1-(5-methyl-2-pyrimidinyl)-2-propanesulfonamide], the pEC50 was 9.14.

On to `COc1cccc(OC)c1-n1c(NS(=O)(=O)[C@H]2C[C@@H](O)CN(c3ncc(F)cn3)C2)nnc1-c1ccccc1` (single isomer, unassigned) [Example 57.0, (3R,5S)-N-(4-(2,6-dimethoxyphenyl)-5-phenyl-4H-1,2,4-triazol-3-yl)-1-(5-fluoro-2-pyrimidinyl)-5-hydroxy-3-piperidinesulfonamide or (3S,5R)-N-(4-(2,6-dimethoxyphenyl)-5-phenyl-4H-1,2,4-triazol-3-yl)-1-(5-fluoro-2-pyrimidinyl)-5-hydroxy-3-piperidinesulfonamide], for which the pEC50 was 8.85.

Turning to `COCCn1c(NS(=O)(=O)[C@@H](C)[C@H](OC)c2ncc(Cl)cn2)nnc1-c1ccccc1` [Example 129.0], the pEC50 is 7.85.

As to `CO[C@H](c1ncc(Cl)cn1)[C@H](C)S(=O)(=O)Nc1nnc(-c2cccc3nn(C)cc23)n1C(C)C` [Example 116.0], the pEC50 was 6.66.
